{"source": "paper PMC4853435", "about": "“A cell cycle kinase with tandem sensory PAS domains integrates cell fate cues” (Nature Communications, 2016)", "key": {"[1]": {"target": "T1, CckA 197–691 (ΔPAS-A) (Caulobacter vibrioides, UniProt A0A0H3C8Q4)", "T1 construct": "residues 197-691 (PAS-B, DHp, CA, RD), His-tagged, E. coli, Ni-NTA", "T1 sequence (A0A0H3C8Q4 197-691)": "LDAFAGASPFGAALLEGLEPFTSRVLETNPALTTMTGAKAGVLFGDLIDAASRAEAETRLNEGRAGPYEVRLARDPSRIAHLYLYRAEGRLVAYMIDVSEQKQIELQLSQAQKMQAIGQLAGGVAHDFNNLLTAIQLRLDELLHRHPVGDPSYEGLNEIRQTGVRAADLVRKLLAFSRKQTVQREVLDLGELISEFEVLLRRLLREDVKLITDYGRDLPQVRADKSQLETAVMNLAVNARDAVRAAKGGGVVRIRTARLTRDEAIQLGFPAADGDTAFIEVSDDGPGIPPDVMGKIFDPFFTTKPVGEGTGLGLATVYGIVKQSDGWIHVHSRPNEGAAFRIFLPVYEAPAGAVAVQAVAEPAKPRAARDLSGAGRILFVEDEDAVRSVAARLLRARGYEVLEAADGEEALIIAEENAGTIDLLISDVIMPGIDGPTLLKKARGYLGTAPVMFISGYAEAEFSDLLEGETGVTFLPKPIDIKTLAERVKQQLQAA", "test": "autophosphorylation with [gamma-32P]ATP, nitrocellulose capture, phosphorimaging", "format": "biochemical"}, "[2]": {"target": "T2, CckA 70–295 (ΔDHp-ΔCA-ΔRD) (Caulobacter vibrioides, UniProt A0A0H3C8Q4)", "T2 construct": "residues 70-295 (PAS-A, PAS-B), pJAB41 in pET28b(+), His-tagged, E. coli, Ni-NTA; immobilised on SPR chip", "T2 sequence (A0A0H3C8Q4 70-295)": "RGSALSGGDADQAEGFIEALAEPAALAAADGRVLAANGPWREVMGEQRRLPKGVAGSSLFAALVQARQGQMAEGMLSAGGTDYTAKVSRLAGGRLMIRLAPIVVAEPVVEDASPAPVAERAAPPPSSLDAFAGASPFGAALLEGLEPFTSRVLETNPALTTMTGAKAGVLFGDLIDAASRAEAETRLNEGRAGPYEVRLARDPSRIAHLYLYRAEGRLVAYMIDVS", "test": "SPR (Biacore T200, CckA variant amine-coupled to CM5 chip)", "format": "binding", "settings": "50 mM HEPES pH 8, 200 mM KCl, 5 mM MgCl2, 25 °C"}, "[3]": {"target": "T3, CckA 70–544 (ΔRD) (Caulobacter vibrioides, UniProt A0A0H3C8Q4)", "T3 construct": "residues 70-544 (PAS-A, PAS-B, DHp, CA), receiver domain removed, His-tagged, E. coli, Ni-NTA; immobilised on SPR chip", "T3 sequence (A0A0H3C8Q4 70-544)": "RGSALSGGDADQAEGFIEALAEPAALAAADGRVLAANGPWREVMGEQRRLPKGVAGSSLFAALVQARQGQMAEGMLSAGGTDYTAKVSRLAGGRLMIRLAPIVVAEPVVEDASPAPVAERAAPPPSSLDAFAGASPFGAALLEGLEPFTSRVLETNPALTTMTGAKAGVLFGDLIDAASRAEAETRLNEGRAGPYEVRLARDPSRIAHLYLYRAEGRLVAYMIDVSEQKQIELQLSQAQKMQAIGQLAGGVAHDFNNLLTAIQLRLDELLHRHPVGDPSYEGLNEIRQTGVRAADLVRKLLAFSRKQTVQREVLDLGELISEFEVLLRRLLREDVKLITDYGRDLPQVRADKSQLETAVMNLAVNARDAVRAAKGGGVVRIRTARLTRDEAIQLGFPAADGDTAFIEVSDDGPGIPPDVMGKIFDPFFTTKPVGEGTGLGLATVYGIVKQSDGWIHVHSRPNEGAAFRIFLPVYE", "test": "SPR (Biacore T200, CckA variant amine-coupled to CM5 chip)", "format": "binding", "settings": "50 mM HEPES pH 8, 200 mM KCl, 5 mM MgCl2, 25 °C"}, "[4]": {"target": "T4, CckA 70–691 (WT) (Caulobacter vibrioides, UniProt A0A0H3C8Q4)", "T4 construct": "cytosolic region 70-691 (PAS-A, PAS-B, DHp, CA, RD), transmembrane helices removed, N-terminal His6 tag, E. coli, Ni-NTA", "T4 sequence (A0A0H3C8Q4 70-691)": "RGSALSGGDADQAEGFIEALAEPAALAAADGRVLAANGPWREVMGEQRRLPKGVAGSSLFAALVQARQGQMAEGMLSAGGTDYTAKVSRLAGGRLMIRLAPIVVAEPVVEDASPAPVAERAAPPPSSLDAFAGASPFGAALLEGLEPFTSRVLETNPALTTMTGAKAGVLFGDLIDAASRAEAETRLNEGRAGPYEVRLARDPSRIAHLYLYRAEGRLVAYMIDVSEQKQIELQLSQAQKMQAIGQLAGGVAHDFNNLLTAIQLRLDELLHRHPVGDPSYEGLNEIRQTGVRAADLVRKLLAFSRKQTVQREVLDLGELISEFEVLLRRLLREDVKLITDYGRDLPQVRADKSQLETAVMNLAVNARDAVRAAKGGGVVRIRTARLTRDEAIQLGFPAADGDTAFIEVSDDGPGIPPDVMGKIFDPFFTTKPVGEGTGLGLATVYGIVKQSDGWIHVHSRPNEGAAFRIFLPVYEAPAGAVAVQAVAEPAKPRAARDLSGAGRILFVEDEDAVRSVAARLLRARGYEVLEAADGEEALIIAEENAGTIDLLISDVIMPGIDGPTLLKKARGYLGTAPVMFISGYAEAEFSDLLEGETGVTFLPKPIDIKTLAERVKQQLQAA", "test": "autophosphorylation with [gamma-32P]ATP, nitrocellulose capture, phosphorimaging", "format": "biochemical"}, "[5]": {"target": "T5, CckA 70–378 (ΔCA-ΔRD) (Caulobacter vibrioides, UniProt A0A0H3C8Q4)", "T5 construct": "residues 70-378 (PAS-A, PAS-B, DHp), His-tagged, E. coli, Ni-NTA; immobilised on SPR chip", "T5 sequence (A0A0H3C8Q4 70-378)": "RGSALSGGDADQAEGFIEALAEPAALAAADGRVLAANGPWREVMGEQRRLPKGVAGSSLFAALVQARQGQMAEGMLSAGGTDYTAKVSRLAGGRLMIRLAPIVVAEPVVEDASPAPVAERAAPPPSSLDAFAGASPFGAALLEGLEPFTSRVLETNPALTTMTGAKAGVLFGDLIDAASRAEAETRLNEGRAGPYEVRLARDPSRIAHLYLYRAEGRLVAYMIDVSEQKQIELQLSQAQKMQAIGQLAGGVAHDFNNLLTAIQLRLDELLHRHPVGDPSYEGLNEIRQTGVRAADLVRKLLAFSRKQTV", "test": "SPR (Biacore T200, CckA variant amine-coupled to CM5 chip)", "format": "binding", "settings": "50 mM HEPES pH 8, 200 mM KCl, 5 mM MgCl2, 25 °C"}, "[6]": {"target": "T6, CckA 197–544 (ΔPAS-A-ΔRD) (Caulobacter vibrioides, UniProt A0A0H3C8Q4)", "T6 construct": "residues 197-544 (PAS-B, DHp, CA), His-tagged, E. coli, Ni-NTA; immobilised on SPR chip", "T6 sequence (A0A0H3C8Q4 197-544)": "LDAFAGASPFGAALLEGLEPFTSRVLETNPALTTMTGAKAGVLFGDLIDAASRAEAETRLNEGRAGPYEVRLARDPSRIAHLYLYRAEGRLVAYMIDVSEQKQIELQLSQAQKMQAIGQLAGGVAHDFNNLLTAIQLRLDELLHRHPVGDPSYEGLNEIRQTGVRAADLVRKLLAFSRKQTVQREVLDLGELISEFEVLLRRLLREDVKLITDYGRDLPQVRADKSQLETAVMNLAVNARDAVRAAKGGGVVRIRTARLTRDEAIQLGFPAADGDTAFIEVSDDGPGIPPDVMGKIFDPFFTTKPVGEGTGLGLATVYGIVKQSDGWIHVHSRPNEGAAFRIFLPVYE", "test": "SPR (Biacore T200, CckA variant amine-coupled to CM5 chip)", "format": "binding", "settings": "50 mM HEPES pH 8, 200 mM KCl, 5 mM MgCl2, 25 °C"}}, "note": "pIC50: −log10 of the molar value.", "data": [{"smiles": "Nc1nc2c(ncn2[C@@H]2O[C@@H]3COP(=O)(O)O[C@H]4[C@@H](O)[C@H](n5cnc6c(=O)[nH]c(N)nc65)O[C@@H]4COP(=O)(O)O[C@H]3[C@H]2O)c(=O)[nH]1", "note": "[c-di-GMP]", "values": [{"measurement": "pIC50", "setting": "[1]", "result": 4.66}, {"measurement": "SPR (Biacore T200, CckA variant amine-coupled to CM5 chip)", "setting": "[2]", "result": "Each construct still displayed concentration dependence in response to c-di-GMP"}, {"measurement": "SPR (Biacore T200, CckA variant amine-coupled to CM5 chip)", "setting": "[3]", "result": "The concentration-dependent response we observed demonstrates that c-di-GMP directly binds CckA"}, {"measurement": "pIC50", "setting": "[4]", "result": 4.57}, {"measurement": "SPR (Biacore T200, CckA variant amine-coupled to CM5 chip)", "setting": "[5]", "result": "removal of the ATP-binding CA domain resulted in a minor reduction in c-di-GMP binding"}, {"measurement": "SPR (Biacore T200, CckA variant amine-coupled to CM5 chip)", "setting": "[6]", "result": "Each construct still displayed concentration dependence in response to c-di-GMP"}]}]}
